Results published in patent publication US20210000814A1, “RIMEGEPANT FOR CGRP RELATED DISORDERS” (Biohaven Pharmaceutical Holding Company Ltd., priority 2018, published 2021).

Tests used:
[1] = tested on: subjects with Acute Migraines; test: BHV3000-302 Phase 3 trial, acute treatment of migraine: efficacy; assay type: in vivo, human; conditions: Study 302; P<0.0001
Method: Clinical Trial—BHV3000-302: Phase 3: Double-Blind, Randomized, Placebo-Controlled, Safety and Efficacy Trial of BHV-3000 (Rimegepant) for the Acute Treatment of Migraine (ClinicalTrials.gov Identifier: NCT03237845) • A phase 3 clinical study was conducted with 1503 participants, as follows. […] Pain Freedom of rimegepant (75 mg tablet) compared with placebo in the acute treatment of migraine will be measured using the number of evaluable subjects that report no pain at 2 hours post-dose. [Time Frame: Two hours post dose] • Pain will be measured on a 4 point Likert scale (0=none, 1=mild, 2=moderate, 3=severe) • 2. Freedom from the most bothersome symptom (MBS) of rimegepant (75 mg tablet) compared with placebo will be measured using the number of evaluable subjects that report the absence of their MBS at 2 hours post-dose. […] The MBS (nausea, phonophobia or photophobia) will measured using a binary scale (0=absent, 1=present). […] [Time Frame: 2 hours-24 hours post-dose] • Sustained Pain Freedom as measured by a 4 point numeric rating scale (None, Mild, Moderate, Severe) • 2. […] [Time Frame: 2 hours post-dose] • Pain Relief as measured by a 4 point numeric rating scale (None, Mild, Moderate, Severe) • 5. […] [Time Frame: 2 hours-48 hours post-dose] • Sustained Pain Freedom as measured by a 4 point numeric rating scale (None, Mild, Moderate, Severe) • 8. […]

[2] = BHV3000-301 Phase 3 trial: safety and tolerability; assay type: in vivo, human; conditions: Study 301
Method: Methods • In a double-blind, randomized, placebo-controlled, multicenter study (Study 301, NCT03235479) adults ≥[…] of age with at least a 1-year history of ICHD 3-beta migraine were eligible to participate. Following a 3- to 28-day screening period, subjects were randomized to receive rimegepant 75 mg or matching placebo and instructed to treat a single migraine attack with 1 dose of the blinded study drug (rimegepant or placebo) when headache pain reached moderate or severe intensity. The coprimary endpoints were pain freedom at 2 hours postdose and freedom from the most bothersome symptom (MBS) at 2 hours postdose. Safety assessments included adverse events (AEs), ECGs, vital signs, physical measurements, and routine laboratory tests, including assessment of liver function. Unless stated otherwise, values presented are mean±SD.

With `N[C@@H]1c2cccnc2[C@H](OC(=O)N2CCC(n3c(=O)[nH]c4ncccc43)CC2)CC[C@H]1c1cccc(F)c1F` [Rimegepant, [(55,65,9R)-5-amino-6-(2,3-difluorophenyl)-6,7,8,9-tetrahydro-5H-cyclohepta[b]pyridin-9-yl]4-(2-oxo-3H-imidazo[4,5-b]pyridin-1-yl)piperidine-1-carboxylate] the “patients achieving normal function at 2 hours (functional disability) versus placebo” value [1] was “greater proportion”, the “SAE related to the study drug” value [2] was “No SAE” and the “bilirubin elevations >2 times ULN” value [2] was “No bilirubin elevations”. For the same compound, the “transaminase level >5 times ULN” value [2] was “no subject”, the “safety and tolerability profile” value ([2]; 75 mg oral tablet) was “favorable tolerability and safety” and the AE dizziness ([2]; 4/546 subjects) was 0.7%. The AE nausea ([2]; 5/546 subjects) was 0.9%, the “Serum ALT or AST levels greater than ULN” value ([2]; 11/546 subjects) was 2.0% and the “Serious AEs (SAEs)” value ([2]; n=2, both not dosed before onset) was 0.4%.
